The target of the experiment is T1, human histamine 3 receptor (Homo sapiens, UniProt Q9Y5N1).
T1 construct: expressed in transfected cells; membranes
The experiment is described as follows: H3R binding assay (competitive inhibition SPA, [3H] alpha-methylhistamine, HEK293 H3R8 membranes). As to conditions: read-out: Human H3 Receptor Ki. From the text: The compounds of the present invention can readily be evaluated by using a competitive inhibition Scintillation Proximity Assay (SPA) based on a H3R binding assay using [3H] α methylhistamine as ligand. Stable cell lines, including but not limited to HEK can be transfected with cDNA coding for H3R to prepare membranes used for the binding assay. The technique is illustrated below (Preparation of Histamine Receptor Subtype Membranes) for the histamine receptor subtypes.
cDNA for the human histamine 1 receptor (H1R) was cloned into a mammalian expression vector containing the CMV promoter (pcDNA3.1(+), Invitogen) and transfected into HEK293 cells using the FuGENE Tranfection Reagent (Roche Diagnostics Corporation). Transfected cells were selected using G418 (500 μ/mL). Colonies that survived selection were grown and tested for histamine binding to cells grown in 96-well dishes using a scintillation proximity assay (SPA) based radioligand binding assay. Briefly, cells, representing individual selected clones, were grown as confluent monolayers in 96-well dishes (Costar Clear Bottom Plates, #3632) by seeding wells with 25,000 cells and growing for 48 hours (37° C., 5% CO2). […] Plates were counted in a Wallac Trilux 1450 Microbeta scintillation counter. […]
cDNA for the human histamine 3 receptor was cloned and expressed as described in (A. Preparation H1R membranes), above. […]

The Ki is the equilibrium dissociation constant of an inhibitor or competing ligand from its target.

T1 sequence (Q9Y5N1 whole entry): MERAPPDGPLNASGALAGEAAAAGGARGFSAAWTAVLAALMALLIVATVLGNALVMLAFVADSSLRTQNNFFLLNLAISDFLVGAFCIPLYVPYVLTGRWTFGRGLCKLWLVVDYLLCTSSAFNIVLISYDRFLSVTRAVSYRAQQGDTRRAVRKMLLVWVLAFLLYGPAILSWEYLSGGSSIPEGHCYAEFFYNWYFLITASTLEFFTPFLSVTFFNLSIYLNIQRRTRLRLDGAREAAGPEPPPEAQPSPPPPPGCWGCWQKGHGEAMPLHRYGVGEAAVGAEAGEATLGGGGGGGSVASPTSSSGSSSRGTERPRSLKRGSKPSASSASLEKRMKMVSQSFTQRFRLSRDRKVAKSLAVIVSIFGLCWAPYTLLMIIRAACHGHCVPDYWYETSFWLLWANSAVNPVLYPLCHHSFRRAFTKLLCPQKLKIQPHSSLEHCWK

In the case of `O=C(c1ccc(OCc2ccco2)cc1)N1CCC[C@H]1CN1CCCC1`, the inhibition constant (Ki) came to 6.2 nM.

Turning to `C[C@@H]1CCCN1C[C@@H]1CCCN1C(=O)c1ccc(OCc2ncon2)cc1F`, the Ki was 1.8 nM.
